This is an account of results in US20170020798A1, “HESPERIDIN-CONTAINING COMPOSITIONS AND METHODS FOR TREATMENT OF SKIN DISORDERS” (The Regents of the University of California, priority 2015, published 2017).

A short description of data set [1]: Solubility of hesperidin in ethanol. In kind it is physicochemical. The settings on record: 100% ethanol.
In a further data set the test system is young normal murine skin. Nature of the data set: Topical hesperidin on young normal murine skin. In kind it is in vivo.
Data set [2] deals with GC-induced epidermal side effects. Put plainly: Hesperidin co-applications with glucocorticoid (GC): prevention of GC-induced epidermal side effects. In kind it is in vivo.
The subject of a further data set is aged mice. Nature of the data set: Cholesterol-dominant lipid mixture plus hesperidin on aged mice. In kind it is in vivo, mouse. The settings on record: 2% hesperidin added to the triple lipid mixture, 18-month old mice, twice daily for 7 days. As for the experimental part: The composition includes a cholesterol-dominant lipid mixture plus hesperidin for the use on aged mice: 18-Month old mice were divided into groups of untreated, lipid mixture+vehicle (70% ethanol) treated, and lipid mixture+2% hesperidin treated. Mice are treated twice daily for 7 days. All measurements are carried out with a MPA5 physiology monitor. Lipid mixture contained cholesterol, fatty acid and ceramide (3:1:1 molar ratio, with cholesterol at 3 moles) at a concentration of 0.74 wt %. Data are normalized to untreated control, setting untreated as 100%.

Data set [3] has as its system aged epidermis. Nature of the data set: Lamellar body density and secretion (electron microscopy). In kind it is in vivo, mouse. The text has this:
Skin biopsies from both vehicle and hesperidin-treated mice were taken for electron microscopy. Briefly, samples were minced to <0.5 mm^3, fixed in modified Karnovsky's fixative overnight, and post-fixed in either 0.2% ruthenium tetroxide or 1% aqueous osmium tetroxide, containing 1.5% potassium ferrocyanide. After fixation, all samples were dehydrated in a graded ethanol series, and embedded in an Epon-epoxy mixture. Ultrathin sections were examined, with or without further contrasting with lead citrate, in a Zeiss 10A electron microscope (Carl Zeiss, Thornwood, N.J.), operated at 60 kV.
LB numbers were determined in granular cells two to three layers below the stratum granulosum-stratum corneum (SG-SC) junction as previously described. The number of LBs was counted at 4800 magnification using a calibrated grid. Total 10 random pictures from each biopsy sample were assessed. For quantification of LB secretion, number of LB protrusion at the SG-SC junction were measured at a magnification of 5800 and correlated with the length of the bottom surface of the first SC layer on 10 random images at 5800 magnification.

Data set [4] has as its system keratinocytes isolated from adult human (donor aged 60-65 year old). Put plainly: Q-PCR for mRNA expression in adult human keratinocyte cultures. In kind it is cell-based. To be noted: 0.02% hesperidin. As for the experimental part:
Second-passage keratinocytes isolated from adult human (donor aged 60-65 year old) were cultured in serum-free keratinocyte growth medium containing 0.07 mM calcium (Clonetics, San Diego, Calif.). Cells at 60%-70% confluence were switched to a medium containing 1.2 mM calcium and treated with either 0.02% hesperidin or vehicle alone (0.02% ethanol). After 24 and 48 hrs of treatment, keratinocytes were collected for Q-PCR analysis.
Total RNA was isolated from cultured human keratinocytes using TRI Reagent (Sigma). First strand cDNA was synthesized from 1 ug of total RNA with the iScript cDNA Synthesis Kit (Bio-Rad, Hercules, Calif.). The real-time PCR contained 20 ng of reversed transcribed total RNA, 450 nM forward and reverse primers, and 10 μl of 2× LightCycler 480 SYBR Green I Master in a final volume of 20 μl in 96-well plates using Mx3000PTM Real-time PCR System (Stratagene, La Jolla, Calif.). Quantification was performed by the comparative CT method with 36B4 or Cyclophilin A used for normalization. The primers for lipid synthetic enzymes such as 3-hydroxy-3-methyl-glutaryl-CoA reductase (HMGCoA), serine-palmitoyl transferase 1 (SPT1), fatty acid synthase (FAS), lipid transporters (ATP-binding cassette A12 (ABCA12)), mouse beta defensin 3 (mBD3), sodium-hydrogen exchanger 1 (NHE1), secretary phospholipase A2g2f (sPLA2g2f), filaggrin, involucrin, loricrin and Cyclophilin A are listed in Primer Table 2. Relative expression of the mRNAs compared to control mRNA was calculated. Data are expressed as percentage of control (as 100%).

In data set [5] the test system is aged epidermis. Nature of the data set: Gross appearance, histology and PCNA staining of aged mouse epidermis. In kind it is in vivo. To be noted: aged mice, 2% hesperidin topically twice daily for 9 days; NS vs. vehicle. As to the method: (§1) All animal procedures were approved by the Animal Studies Subcommittee (IACUC) of the San Francisco Veterans Administration Medical Center and performed in accordance with their guidelines. Since hesperidin is not soluble in 100% ethanol, 70% ethanol was used as vehicle. Since the turnover time for […] is about 9.5 days in normal young mice, we chose to treat aged mice for 9 days. Both flanks of 12-15 month old mice were treated topically with 60 μl of 2% hesperidin or 70% ethanol twice daily for 9 days. Basal epidermal permeability barrier function was assessed by measuring transepidermal water loss (TEWL) using TM300 connected to MPA5 (C&K, Cologne, Germany). For barrier recovery, TEWL was measured using an electrolytic water analyzer (Meeco, Warrington, Pa.) at 0, 2 and 4 hours after tape stripping (10-fold increase in TEWL), and percent barrier recovery was calculated.
Immunohistochemical staining for assessing changes in epidermal differentiation was performed as follows. Briefly, 5 μm paraffin sections were incubated with the primary antibodies (Covance, Emeryville, Calif.) overnight at 4° C. […] Staining was detected with ABC-peroxidase kit from Vector Lab (Burlingame, Calif.). Sections were examined with a Zeiss fluorescence microscope (Jena, Germany) and digital images were captured with AxioVision software (Carl Zeiss Vision, Munich, Germany).

A further data set deals with aged murine skin. Nature of the data set: Epidermal function after topical hesperidin in aged mice (TEWL, barrier recovery, SC hydration, skin surface pH). In kind it is in vivo, mouse. As for the experimental part:
as §1

The next data set has as its system murine skin. Put plainly: Epidermal mRNA levels of antioxidant enzymes after topical hesperidin. In kind it is in vivo. The settings on record: topical hesperidin applications.
For a further data set, the system named is aged mouse epidermis. Nature of the data set: Q-PCR for mRNA expression in aged mouse epidermis. In kind it is in vivo.
The conditions of data set [6]: cited from earlier work.
The test system of the next data set is normal epidermis. The settings on record: applied to normal epidermis; cited from earlier work.
Where [7] appears, read: hesperidin co-applications with GC.
Setting [8] is: aged human keratinocyte cultures.
[9] abbreviates: aged epidermis, topical hesperidin, Q-PCR.
[10] abbreviates: aged mouse epidermis, topical hesperidin.
Where [11] appears, read: aged mouse epidermis, topical hesperidin, Q-PCR.

Structures can show the parent of a compound that is named as a salt.

For orientation: pKa means the negative logarithm of the acid dissociation constant.

Regarding `COc1ccc([C@@H]2CC(=O)c3c(O)cc(O[C@@H]4O[C@H](CO[C@@H]5O[C@@H](C)[C@H](O)[C@@H](O)[C@H]5O)[C@@H](O)[C@H](O)[C@H]4O)cc3O2)cc1O` [hesperidin, (2S)-5-hydroxy-2-(3-hydroxy-4-methoxyphenyl)-7-[(2S,3R,4S,5S,6R)-3,4,5-trihydroxy-6-[[(2R,3R,4R,5R,6S)-3,4,5-trihydroxy-6-methyloxan-2-yl]oxymethyl]oxan-2-yl]oxy-2,3-dihydrochromen-4-one], the solubility result in data set [1] is on record as “not soluble”. In the data set on young normal murine skin, the epidermal differentiation result was “stimulation”, the epidermal proliferation result is given as “stimulation”, the “lamellar body (lipid) secretion” value is on record as “enhanced” and the “skin barrier recovery after acute barrier abrogation” value is “significantly accelerated”. For the same molecule, the “GC-induced inhibition of epidermal proliferation” value in [2] (co-applications of hesperidin with GC) is reported as “prevented”. In [2] (setting [7]), the “GC-induced impairment of epidermal permeability barrier homeostasis” value is listed as “prevented”, the “GC-induced impairment of stratum corneum (SC) integrity” value is “prevented”, the “epidermal β-glucocerebrosidase activity” value was “enhanced” and the filaggrin expression result is given as “significant increase”. In addition, the lamellar bilayer maturation result in data set [2] (setting [7]) is given as “accelerated”. In data set [2] (hesperidin co-applications with topical GC), the “GC-induced impairment of SC acidification / changes in skin surface pH” value was “prevented”. Moreover, in the data set with aged mice, the pH entry was “significantly improved (lowered)”. Besides, the “density of lamellar bodies” value with aged epidermis [3] (aged epidermis after hesperidin treatment) was “did not increase”. The “extent of lamellar body secretion” value in the data set on aged epidermis [3] (aged epidermis, topical hesperidin treatment, quantitative analyses) is listed as “enhanced”. In addition, in data set [4] (adult keratinocyte cultures), the “ABCA12 mRNA expression” value is on record as “marked increase”, the “filaggrin mRNA levels” value is on record as “increased”, the “involucrin mRNA levels” value is on record as “increased” and the “loricrin mRNA levels” value is “increased”. In data set [4] (setting [8]), the CAMP/LL37 expression entry was “markedly upregulated”, the “constitutive hBD2 mRNA expression” value is listed as “no changes” and the “hBD3 mRNA” value is listed as “markedly upregulated”. In the data set with aged epidermis [5], the “PCNA-positive cells per cm epidermal length” value was 2.45±0.13 cells per cm epidermal length. For the same molecule, the “skin surface pH” value in the data set on aged murine skin (aged mice, 9 days topical hesperidin, compared with vehicle-treated skin) is “significantly declined”. In addition, the “basal transepidermal water loss rates” value with aged murine skin (aged mice, 9 days topical hesperidin, compared with vehicle-treated skin, within normal range of young skin) was “increased slightly”. In addition, in the data set with aged murine skin (aged mice, after 9 days of topical hesperidin, no different from vehicle), the “baseline SC hydration” value was 58.80±2.27. Besides, the barrier recovery entry with aged murine skin (at both 2 and 4 hours after acute barrier disruption of aged skin) is reported as “significantly accelerated”. In the data set with murine skin, the “epidermal glutathione reductase mRNA levels” value is “increased” and the “epidermal superoxide dismutase mRNA levels” value was “increased”. Moreover, the Nrf2 expression result in the data set on aged mouse epidermis (aged epidermis) is “upregulates”. In the data set with aged mouse epidermis (setting [9]), the “NHE1 mRNA levels” value is “marked elevation” and the “sPLA2g2f mRNA levels” value is given as “marked elevation”. In addition, in the data set with aged mouse epidermis (aged mice, hesperidin treatment), the “epidermal mBD3 mRNA levels” value was “significantly increased”. Further, in the data set on aged mouse epidermis (setting [10]), the “ABCA12 mRNA expression” value is “marked increase”, the “filaggrin mRNA levels” value was “significantly increased” and the “loricrin mRNA levels” value was “significantly increased”. In the data set with aged mouse epidermis (setting [11]), the “FAS mRNA levels” value is “significantly increased”, the “HMGCoA mRNA levels” value is given as “significantly increased” and the “SPT1 mRNA levels” value is listed as “significantly increased”.
In the case of `CC(C)CCC[C@@H](C)[C@H]1CC[C@H]2[C@@H]3CC=C4C[C@@H](OS(=O)(=O)O)CC[C@]4(C)[C@H]3CC[C@]12C` [CSO4, Cholesterol sulfate], in [6], the pKa is 3.1.
As to `CC[C@H](C)C(=O)O[C@H]1C[C@@H](C)C=C2C=C[C@H](C)[C@H](CC[C@@H]3C[C@@H](O)CC(=O)O3)[C@H]21` [lovastatin], in the data set with normal epidermis, the “effect on barrier function” value is “produces a barrier defect”.
